19 compounds from PubChem BioAssay AID248 (DTP/NCI, 2004) can be followed below.

This test has as its system L1210 leukemia ip in BDF1 mice, survival T/C. The experiment in a line: NCI In Vivo Anticancer Drug Screen. Data for tumor model L1210 Leukemia (intraperitoneal) in B6D2F1 (BDF1) mice. The note with it: higher = longer survival. The method, boiled down: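 Survival endpoint. Drug-treated group vs vehicle group, expressed as T divided by C. Tumor passaged by transplantation.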

[1] abbreviates: endpoint: mean survival time, dose: 50.0 mg/kg/injection, schedule: Q01DX001 (ip), vehicle: saline with Tween-80.
Setting [2] is: endpoint: mean survival time, dose: 100.0 mg/kg/injection, schedule: Q01DX001 (ip), vehicle: saline with Tween-80.
Setting [3] is: endpoint: mean survival time, dose: 100.0 mg/kg/injection, schedule: Q04DX002 (ip), vehicle: Klucel (hydroxypropylcellulose) (HPC).
Setting [4] is: endpoint: mean survival time, dose: 200.0 mg/kg/injection, schedule: Q04DX002 (ip), vehicle: Klucel (hydroxypropylcellulose) (HPC).
Where [5] appears, read: endpoint: mean survival time, dose: 400.0 mg/kg/injection, schedule: Q04DX002 (ip), vehicle: Klucel (hydroxypropylcellulose) (HPC).
[6] abbreviates: endpoint: mean survival time, dose: 100.0 mg/kg/injection, schedule: Q01DX001 (ip), vehicle: saline.
Where [7] appears, read: endpoint: mean survival time, dose: 200.0 mg/kg/injection, schedule: Q01DX001 (ip), vehicle: saline.
The mark [8] stands for this setting: endpoint: mean survival time, dose: 100.0 mg/kg/injection, schedule: Q01DX009 (ip), vehicle: saline with Tween-80.
[9] abbreviates: endpoint: mean survival time, dose: 100.0 mg/kg/injection, schedule: Q04DX003 (ip), vehicle: saline with Tween-80.
Setting [10] is: endpoint: mean survival time, dose: 200.0 mg/kg/injection, schedule: Q04DX003 (ip), vehicle: saline with Tween-80.

Several values for one entry are separate records, joined by “and”; a condition that tells them apart may be missing. Identical values can stand only once. Toxic doses and inconclusive results are not listed.

As to `Cc1ccc(S(=O)(=O)F)cc1C(=O)O`, the T/C by setting is: (endpoint: mean survival time, dose: 100.0 mg/kg/injection, schedule: Q01DX001 (ip), vehicle: carboxymethylcellulose (CMC)) 96 % of control and 106 % of control; (endpoint: mean survival time, dose: 100.0 mg/kg/injection, schedule: Q01DX009 (ip), vehicle: carboxymethylcellulose (CMC)) 93 % of control and 102 % of control; (endpoint: mean survival time, dose: 100.0 mg/kg/injection, schedule: Q04DX002 (ip), vehicle: gum acacia) 101 % of control and 111 % of control; (endpoint: mean survival time, dose: 100.0 mg/kg/injection, schedule: Q04DX003 (ip), vehicle: carboxymethylcellulose (CMC)) 93 % of control and 98 % of control; (endpoint: mean survival time, dose: 200.0 mg/kg/injection, schedule: Q01DX001 (ip), vehicle: carboxymethylcellulose (CMC)) 95 % of control and 100 % of control; (endpoint: mean survival time, dose: 200.0 mg/kg/injection, schedule: Q01DX009 (ip), vehicle: carboxymethylcellulose (CMC)) 99 % of control and 100 % of control. Moreover, the T/C runs as follows: (endpoint: mean survival time, dose: 200.0 mg/kg/injection, schedule: Q04DX002 (ip), vehicle: gum acacia) 101 % of control and 104 % of control; (endpoint: mean survival time, dose: 200.0 mg/kg/injection, schedule: Q04DX003 (ip), vehicle: carboxymethylcellulose (CMC)) 102 % of control; (endpoint: mean survival time, dose: 400.0 mg/kg/injection, schedule: Q04DX002 (ip), vehicle: gum acacia) 107 % of control; (endpoint: mean survival time, dose: 400.0 mg/kg/injection, schedule: Q04DX003 (ip), vehicle: carboxymethylcellulose (CMC)) 93 % of control.
In the case of `NC1=NC=NCN1c1ccc(N)cc1`, the T/C reads like this: (endpoint: mean survival time, dose: 25.0 mg/kg/injection, schedule: Q01DX001 (ip), vehicle: saline with Tween-80) 96 % of control; under setting [1], 102 % of control; under setting [2], 104 % of control.
With `O=C(O)CCCOc1ccc(Cl)cc1`, the T/C is, setting by setting: under setting [3], 96 % of control; under setting [4], 101 % of control; under setting [5], 104 % of control.
With `O=C(O)c1cc(N2CCCC2)ccn1`, the T/C was 96 % of control under setting [6] and 101 % of control under setting [7].
For `COc1cc(Cc2cc(OC)c(OC)cc2[N+](=O)[O-])c([N+](=O)[O-])cc1OC`, the T/C (endpoint: mean survival time, dose: 100.0 mg/kg/injection, schedule: Q04DX003 (ip), vehicle: saline) was 108 % of control; the T/C (endpoint: mean survival time, dose: 200.0 mg/kg/injection, schedule: Q04DX003 (ip), vehicle: saline) was 108 % of control; the T/C (endpoint: mean survival time, dose: 400.0 mg/kg/injection, schedule: Q04DX003 (ip), vehicle: saline) is 120 % of control.
As for `CC(=O)NN`, the T/C under setting [6] was 104 % of control.
For `Cc1ccc(C(=O)/C=C\c2ccc(Cl)c(Cl)c2)cc1`, the T/C reads like this: under setting [3], 92 % of control; under setting [4], 106 % of control; under setting [5], 95 % of control.
On to `O=S(Cc1ccccc1)c1ccccc1` (stereo unspecified), for which the T/C is, setting by setting: (endpoint: mean survival time, dose: 75.0 mg/kg/injection, schedule: Q04DX002 (ip), vehicle: Klucel (hydroxypropylcellulose) (HPC)) 115 % of control; (endpoint: mean survival time, dose: 150.0 mg/kg/injection, schedule: Q04DX002 (ip), vehicle: Klucel (hydroxypropylcellulose) (HPC)) 100 % of control; (endpoint: mean survival time, dose: 300.0 mg/kg/injection, schedule: Q04DX002 (ip), vehicle: Klucel (hydroxypropylcellulose) (HPC)) 93 % of control.
For `Cc1ccc([N+](=O)[O-])cc1NC(=O)Oc1cc(=O)oc2ccccc12`, the T/C is 104 % of control under setting [3], 90 % of control under setting [4] and 93 % of control under setting [5].
Consider `O=C1CCCC/C1=C\Sc1ccccc1`, for which the T/C is, setting by setting: (endpoint: mean survival time, dose: 100.0 mg/kg/injection, schedule: Q04DX002 (ip), vehicle: saline) 95 % of control; (endpoint: mean survival time, dose: 200.0 mg/kg/injection, schedule: Q04DX002 (ip), vehicle: saline) 98 % of control; (endpoint: mean survival time, dose: 400.0 mg/kg/injection, schedule: Q04DX002 (ip), vehicle: saline) 88 % of control.
Consider `O=C(COC(=O)c1ccccc1Br)c1ccc(-c2ccccc2)cc1`, for which the T/C is, setting by setting: under setting [6], 94 % of control; under setting [7], 100 % of control; (endpoint: mean survival time, dose: 400.0 mg/kg/injection, schedule: Q01DX001 (ip), vehicle: saline) 91 % of control.
As to `CN1CCN(CCCN2c3ccccc3Sc3ccc(Cl)cc32)CC1`, the T/C runs as follows: under setting [3], 104 % of control; under setting [4], 90 % of control; (endpoint: median survival time, dose: 6.25 mg/kg/injection, schedule: Q06HX032 (oral), vehicle: Klucel (hydroxypropylcellulose) (HPC)) 97 % of control; (endpoint: median survival time, dose: 6.25 mg/kg/injection, schedule: Q06HX044 (oral), vehicle: Klucel (hydroxypropylcellulose) (HPC)) 91 % of control; (endpoint: median survival time, dose: 12.5 mg/kg/injection, schedule: Q06HX032 (oral), vehicle: Klucel (hydroxypropylcellulose) (HPC)) 98 % of control and 107 % of control; (endpoint: median survival time, dose: 12.5 mg/kg/injection, schedule: Q06HX044 (oral), vehicle: Klucel (hydroxypropylcellulose) (HPC)) 95 % of control and 96 % of control. For the same compound, the T/C by setting is: (endpoint: median survival time, dose: 25.0 mg/kg/injection, schedule: Q06HX032 (oral), vehicle: Klucel (hydroxypropylcellulose) (HPC)) 97 % of control and 116 % of control; (endpoint: median survival time, dose: 25.0 mg/kg/injection, schedule: Q06HX044 (oral), vehicle: Klucel (hydroxypropylcellulose) (HPC)) 101 % of control and 76 % of control; (endpoint: median survival time, dose: 50.0 mg/kg/injection, schedule: Q06HX032 (oral), vehicle: Klucel (hydroxypropylcellulose) (HPC)) 57 % of control and 69 % of control; (endpoint: median survival time, dose: 50.0 mg/kg/injection, schedule: Q06HX044 (oral), vehicle: Klucel (hydroxypropylcellulose) (HPC)) 93 % of control and 35 % of control.
Take `COC(=O)C1(COC(C)=O)CC1`: the T/C under setting [1] is 103 % of control; the T/C under setting [2] is 97 % of control; the T/C (endpoint: mean survival time, dose: 200.0 mg/kg/injection, schedule: Q01DX001 (ip), vehicle: saline with Tween-80) was 103 % of control.
For the compound `COC(=O)CC(=O)c1ccc(C)cc1`, the T/C by setting is: (endpoint: mean survival time, dose: 100.0 mg/kg/injection, schedule: Q01DX009 (ip), vehicle: Klucel (hydroxypropylcellulose) (HPC)) 101 % of control; (endpoint: mean survival time, dose: 100.0 mg/kg/injection, schedule: Q04DX003 (ip), vehicle: Klucel (hydroxypropylcellulose) (HPC)) 108 % of control; (endpoint: mean survival time, dose: 200.0 mg/kg/injection, schedule: Q01DX009 (ip), vehicle: Klucel (hydroxypropylcellulose) (HPC)) 95 % of control; (endpoint: mean survival time, dose: 200.0 mg/kg/injection, schedule: Q04DX003 (ip), vehicle: Klucel (hydroxypropylcellulose) (HPC)) 111 % of control; (endpoint: mean survival time, dose: 400.0 mg/kg/injection, schedule: Q01DX009 (ip), vehicle: Klucel (hydroxypropylcellulose) (HPC)) 104 % of control; (endpoint: mean survival time, dose: 400.0 mg/kg/injection, schedule: Q04DX003 (ip), vehicle: Klucel (hydroxypropylcellulose) (HPC)) 95 % of control.
Consider `NC(=O)c1ccccc1C(Cl)(Cl)Cl`, for which the T/C by setting is: (endpoint: mean survival time, dose: 50.0 mg/kg/injection, schedule: Q01DX009 (ip), vehicle: saline with Tween-80) 88 % of control; under setting [8], 89 % of control; under setting [9], 104 % of control; under setting [10], 96 % of control.
Turning to `Cc1cccc2c1CCC(OC(=O)c1cc([N+](=O)[O-])cc([N+](=O)[O-])c1)C2` (stereo unspecified), the T/C by setting is: under setting [8], 86 % of control; (endpoint: mean survival time, dose: 200.0 mg/kg/injection, schedule: Q01DX009 (ip), vehicle: saline with Tween-80) 169 % of control; (endpoint: mean survival time, dose: 400.0 mg/kg/injection, schedule: Q01DX009 (ip), vehicle: saline with Tween-80) 95 % of control.
Consider `CC(=O)Nc1ccc(N=Cc2ccc([N+](=O)[O-])s2)cc1`, for which the T/C was 100 % of control under setting [9]; 96 % of control under setting [10]; 98 % of control (endpoint: mean survival time, dose: 400.0 mg/kg/injection, schedule: Q04DX003 (ip), vehicle: saline with Tween-80).
Regarding `C[N+]1(CCCNC2=CC(=O)C=CC2=O)CCCC1`, the T/C (endpoint: mean survival time, dose: 0.5 mg/kg/injection, schedule: Q01DX001 (ip), vehicle: saline) was 108 % of control.
Turning to `[F][Sn]([c]1ccc(Cl)cc1)([c]1ccc(Cl)cc1)[c]1ccc(Cl)cc1`, the T/C is 97 % of control (endpoint: mean survival time, dose: 0.18 mg/kg/injection, schedule: Q04DX003 (ip), vehicle: other); 101 % of control (endpoint: mean survival time, dose: 0.37 mg/kg/injection, schedule: Q04DX003 (ip), vehicle: other); 93 % of control (endpoint: mean survival time, dose: 0.75 mg/kg/injection, schedule: Q04DX003 (ip), vehicle: other); 100 % of control (endpoint: mean survival time, dose: 1.5 mg/kg/injection, schedule: Q04DX003 (ip), vehicle: other).
